Assay in all cases: inhibition of tumour cell growth, NCI panel, 48 h
For assay [1], the system named is COLO 205 colon.
The test system of assay [2] is HOP-62 NSCLC.
For assay [3], the system named is NCI-H23 lung.
For assay [4], the system named is OVCAR-5 ovarian.
Assay [5] relates to PC-3 prostate.
For assay [6], the system named is RPMI-8226 leukemia.
Assay [7] has as its system SN12C renal.
Assay [8] concerns SNB-75 CNS.
The subject of assay [9] is UO-31 renal.
The test system of assay [10] is M14 melanoma.

Each structure is given as a SMILES string.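 In this assay, cells in 96-well plates receive the compound at five concentrations for 48 hours. Endpoints are linearly interpolated between the surrounding concentrations. GI50: concentration for 50% inhibition of growth. TGI: total growth inhibition.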

On to `Nc1nc(Cl)cc(NC2(CO)CCC2)n1`, for which the TGI in assay [1], in assay [2], in [3], in assay [4], in assay [5] and in assay [6] was > 100 µM throughout. For the same compound, the TGI in assay [7], in assay [8] and in assay [9] was > 100 µM each time.

In the case of `Cc1csc2c1-n1cccc1C2=O`, the TGI in assay [1], in assay [2], in [10], in [4], in assay [5] and in assay [6] was > 100 µM throughout. In addition, the TGI in assay [7], in assay [8] and in [9] was > 100 µM each time.

Consider `CC1CC/C(=C\c2ccc(F)cc2)C(=O)/C1=C/c1ccc(F)cc1` (configuration not stated), for which the TGI in assay [1] stood at 18.5 µM; in assay [10] it was 39.4 µM; in assay [3], 25.5 µM; in assay [4], 25.4 µM; in assay [5], 28.3 µM; in [6], 5.52 µM. The TGI in [7] is 9.9 µM; in [8], 11.7 µM; in assay [9], 23.6 µM.

In the case of `O=c1ccn(C2OC(CO)C(O)C2F)c(=O)n1Cc1ccccc1` (configuration not stated), the TGI in [1], in [2], in assay [3], in assay [4], in [5] and in [6] was > 100 µM each time. Further, the TGI in assay [7], in [8] and in [9] was > 100 µM throughout.

As to `CC(=O)Oc1c(-c2ccccc2)sc2ccccc12`, the TGI in [1] is 30.2 µM; in [2], 45.7 µM; in [3] it was 38.7 µM; in assay [4], 61.5 µM; in [5], 97.5 µM; in assay [6], 24.8 µM. Moreover, the TGI in assay [8] worked out at 34.8 µM; in assay [9], 36.6 µM.

In the case of `CC(C)(C)OC(=O)CN1CCNCCN(CC(=O)OC(C)(C)C)CCNCC1`, the TGI in assay [1], in assay [2], in [4], in [5], in [6] and in assay [7] was > 100 µM throughout. Further, the TGI in assay [8] and in assay [9] was > 100 µM each time.

In the case of `Nc1[nH]nc2nc3ccccc3nc12`, the TGI in assay [1], in [2], in [3], in [4], in assay [5] and in assay [6] was > 100 µM throughout. Also, the TGI in [7], in [8] and in assay [9] was > 100 µM each time.

Take `O=c1oc2ccccc2cc1-c1cn2c(n1)sc1ccccc12`: the TGI in [1], in assay [2], in assay [10], in [3], in [5] and in assay [6] was > 100 µM each time. The TGI in [7], in assay [8] and in assay [9] was > 100 µM throughout.

Regarding `COc1cc(OC)cc(-c2n/c(=C\c3c(O)[nH]c4ccc(OC)cc34)cc3c2=Nc2ccccc2-3)c1`, the GI50 in assay [2] is 15.6 µM; in assay [10], 2.24 µM; in assay [3] it was 2.78 µM; in [4], 70.2 µM; in [5], 20.5 µM; in [6], 8.88 µM. Moreover, the GI50 is > 100 µM in [7], 18.5 µM in assay [8] and 41.6 µM in [9]. Moreover, the TGI in assay [2] was 34.1 µM; in assay [10] it was 4.18 µM; in assay [3], 8.47 µM; in assay [4], > 100 µM; in assay [5], 62.2 µM; in [6] it was 72.7 µM. Further, the TGI was > 100 µM in [7], 34.3 µM in [8] and > 100 µM in assay [9].

For `Cc1sc2c(c1C)/C(=N\O)c1cccn1-2`, the TGI in assay [1] is > 100 µM; in assay [2] it was 63.3 µM; in assay [10], > 100 µM; in [4] it was > 100 µM; in [5], > 100 µM; in assay [6], > 100 µM. Also, the figures for the TGI in assay [7], in assay [8] and in assay [9] were > 100 µM, 41.1 µM and > 100 µM, respectively.

Take `CCCCCCCCCCCC[C@@H](O)[C@H]1CCC([C@H](O)CCCCC(=O)CCCCCCCC2=C[C@H](C)OC2=O)O1` (some centres not stated): the TGI in assay [1] is > 30 µM; in [10] it was > 35.8 µM; in assay [3], > 50 µM; in assay [4], > 50 µM; in [5] it was > 50 µM; in assay [6], > 50 µM. In addition, the TGI in [7], in [8] and in [9] was > 50 µM in each case.

For the compound `CCOC(=O)NC(OC)(C(F)(F)F)C(F)(F)F`, the TGI in assay [1], in assay [2], in [10], in [3], in assay [5] and in assay [6] was > 100 µM throughout. For the same compound, the TGI in assay [8] and in [9] was > 100 µM throughout.

For `Cc1nc(C)c(N2CCNCC2)c(=O)[nH]1`, the TGI in assay [1], in [2], in [10], in assay [3], in assay [5] and in [6] was > 100 µM throughout. The TGI in assay [7], in [8] and in [9] was > 100 µM each time.

For the compound `O=c1[nH]cc(Cl)c(=O)[nH]1`, the TGI in assay [1], in assay [10], in assay [3], in assay [4], in assay [5] and in assay [6] was > 100 µM in each case. The TGI in assay [7], in assay [8] and in assay [9] was > 100 µM each time.

Values taken from PubChem BioAssay (NCI).
